Test results taken from ChEMBL document CHEMBL2203217, “Prohormone-substrate peptide sequence recognition by peptidylglycine α-amidating monooxygenase and its reflection in increased glycolate inhibitor potency” (Bioorg Med Chem Lett, 2012).

Tests used:
[1] = target: T1, Peptidyl-glycine alpha-amidating monooxygenase (Homo sapiens, UniProt P19021); assay: Competitive inhibition of secreted PAM in human DMS53 cell culture medium using as(R)-Tyr-(S)-Val-Gly as substrate after 2 hrs by HPLC analysis; parameters: species or system DMS-53
T1 sequence (P19021 whole entry): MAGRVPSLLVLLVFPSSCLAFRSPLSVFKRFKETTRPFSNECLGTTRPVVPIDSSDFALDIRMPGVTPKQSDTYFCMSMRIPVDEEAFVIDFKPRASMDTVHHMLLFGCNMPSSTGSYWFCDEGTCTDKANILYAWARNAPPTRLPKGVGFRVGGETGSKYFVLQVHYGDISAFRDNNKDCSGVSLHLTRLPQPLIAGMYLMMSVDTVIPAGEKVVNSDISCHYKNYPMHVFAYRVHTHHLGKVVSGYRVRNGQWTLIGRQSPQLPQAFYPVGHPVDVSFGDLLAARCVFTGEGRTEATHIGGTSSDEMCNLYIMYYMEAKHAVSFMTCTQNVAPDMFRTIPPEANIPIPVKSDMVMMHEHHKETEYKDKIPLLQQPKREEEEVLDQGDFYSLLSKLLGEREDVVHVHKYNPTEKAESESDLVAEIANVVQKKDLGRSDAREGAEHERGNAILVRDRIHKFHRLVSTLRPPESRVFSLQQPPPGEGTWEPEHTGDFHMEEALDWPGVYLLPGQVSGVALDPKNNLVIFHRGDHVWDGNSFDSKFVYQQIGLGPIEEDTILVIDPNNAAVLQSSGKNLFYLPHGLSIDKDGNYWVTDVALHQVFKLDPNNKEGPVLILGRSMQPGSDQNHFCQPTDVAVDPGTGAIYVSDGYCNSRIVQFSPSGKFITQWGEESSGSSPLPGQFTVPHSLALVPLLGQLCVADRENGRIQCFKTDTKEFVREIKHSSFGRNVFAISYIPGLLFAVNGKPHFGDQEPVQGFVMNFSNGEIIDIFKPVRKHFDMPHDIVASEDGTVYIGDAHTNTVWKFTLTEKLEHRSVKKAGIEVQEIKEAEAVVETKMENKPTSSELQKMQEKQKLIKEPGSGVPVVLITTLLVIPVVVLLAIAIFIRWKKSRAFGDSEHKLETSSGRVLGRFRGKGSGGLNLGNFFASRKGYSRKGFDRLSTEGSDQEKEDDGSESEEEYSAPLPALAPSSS

[2] = target: T1, Peptidyl-glycine alpha-amidating monooxygenase; assay: Competitive inhibition of PAM in human DMS53 cells using as(R)-Tyr-(S)-Val-Gly as substrate after 2 hrs by HPLC analysis; assay type: cell-based, DMS-53

IC50 [1]: 370 µM | IC50 [2]: 350 µM
SMILES: C[C@H](N)C(=O)N[C@@H](Cc1ccccc1)C(=O)OCC(=O)O
